Converted amounts (≈) assume the structure as drawn. Like-named read-outs stand apart in the source and are kept apart here.

The test system of data set [1] is DENV-2. The settings on record: cited from earlier work.
Data set [2] concerns DENV-2/NG. Nature of the data set: Antiviral effect after virus cell entry (post-treatment strategy). The class given is cell-based. Conditions: for inhibition at 50 µg/mL: Dengue virus, DENV2, Vero, 48 h; for Viral inhibition percentage, post-treatment strategy: VERO cells infected with DENV-2/NG MOI = 1, then compounds 50 μg/mL for 48 h. How it is done: (§1) A total of 2.5 × 10^4 cells/well were seeded in 96-well plates. The cells were inoculated the following day with serial dilutions (10^− 1 to 10^− 6) of the supernatants from the EC50 experiments for 2 h. Next, the inoculum were removed, and 1.5% carboxymethylcellulose (Sigma-Aldrich) prepared in DMEM (Gibco®) supplemented with 2% FCS (Gibco®) was added, followed by incubation at 37 °C in a 5% CO 2 atmosphere. On the third day, the cells were fixed with a methanol-acetone (1:1) solution for 10 min, washed three times with PBS, and permeabilized with 0.1% Triton X-100 for 30 min, after which nonspecific site blocking was performed with 10% FBS in PBS. Then, DENV anti-envelope monoclonal antibody (mAb) was diluted 1:500 with PBS containing 10% FCS (Gibco®) was added, followed by incubation for 1 h at 37 °C. After washing with PBS, the plates were incubated for 30 min with an anti-mouse IgG secondary antibody conjugated to peroxidase. Finally, the reactions were stained with 3-amino-9-ethylcarbazole (AEC, Sigma-Aldrich), and the number of foci in each well were counted.
A total of 2.5 × 10^4 VERO cells were seeded in 24-well plates for 24 h, and a viral inoculum (DENV-2/NG at an MOI = 1) was then added and incubated for 2 h. Subsequently, the inoculum was removed, and the fractions (100 μg/mL) or characterized compounds (50 μg/mL) were added and incubated with the cells for an additional 48 h (post-treatment strategy). Next, the supernatants were collected and stored at − 70 °C until further processing via the multiwell plate focus assay. For each fraction or compound, two independent experiments were performed each with two replicates (n = 4). Suramin served as the positive control for viral inhibition.
(§2) Fig. 4 Antiviral effects of the compounds derived from the Pg- YP-I-22C fraction on some steps of the DENV replication cycle. The cells were treated with the compounds for 48 h and then infected with DENV (MOI = 1). This infection strategy (pre-treatment) is represented by the dark bars. In addition, independent cell cultures were infected with DENV (MOI = 1) and then treated with the compounds (post-treatment strategy; indicated by clear bars). The error bars correspond to the SEM. The asterisks indicate cases with statistically significant differences (Student’s t-test; p < 0.05) in relation to the control without treatment

For data set [3], the system named is DENV-2/NG. Briefly: Antiviral effect on virus cell entry (pre-treatment strategy). The settings on record: for inhibition at 50 µg/mL: Dengue virus, DENV2, Vero. The class given is cell-based. On the procedure: as §1
A total of 2.5 × 10^4 VERO cells were seeded in 24-well plates for 24 h, and the fractions (100 μg/mL) or characterized compounds (50 μg/mL) were then added and incubated with the cells for an additional 24 h (pre-treatment strategy). Subsequently, treatment was withdrawn, and a viral inoculum (DENV-2/NG at an MOI = 1) was added and incubated for 2 h. Subsequently, the virus was removed, and fresh medium was added for an additional 48 h, after which the supernatants were collected and stored at − 70 °C until further processing via the multiwell plate focus assay. For each fraction and compound, two independent experiments were performed each with two replicates (n = 4). Heparin (Sigma-Aldrich) served as the positive control for viral inhibition.
as §2

Data set [4] relates to DENV-2/NG. Nature of the data set: EC50 determination: VERO cells infected with DENV-2/NG in the presence of treatment, multiwell plate focus assay. The settings on record: for EC50: Dengue virus, DENV2, Vero, read-out: Effective concentration 50% (EC50); for Selectivity index (SI): SI = CC50/EC50, VERO cells infected with DENV-2/NG. The class given is cell-based. On the procedure:
The SI of each ethanolic extract, fraction, or compound was calculated from the relationship between the cytotoxic concentration 50% (CC50) and effective concentration 50% (EC50). The CC50 was determined via the 3-(4,5-dimethyl-2-thiazolyl)-2,5-diphenyl-2H-tetrazolium bromide) (MTT, Sigma-Aldrich) method. For this, 2.5 × 10^4 VERO cells were seeded in 96-well plates for 24 h. Subsequently, serial dilutions of the ethanolic extracts (7.8 μg/mL to 1000 μg/mL), fractions (6.25 to 400 μg/mL), and characterized compounds (6.25 to 400 μg/mL) were performed and incubated with the cells for 48 h. After the incubation period, an MTT solution (0.5 mg/mL) was added to the cultures, which were then incubated for an additional 3 h at 37 °C. Finally, dimethyl sulfoxide was added, and the absorbance was read at 450 nm in a Bio-Rad Benchmark® microplate reader. Cultures without extract, fractions, or compounds were processed as positive controls for viability. The CC50 was calculated as the extract concentration that reduced cell viability by 50% using regression analysis (Probit software). Each experimental condition was tested in triplicate in two independent experiments (n = 6). To calculate the EC50, 2.5 × 10^4 VERO cells were seeded in 96-well plates for 24 h. At 24 h, serial dilutions of each ethanolic extract (7.8 μg/mL to 1000 μg/mL), fraction (6.25 to 400 μg/mL), and characterized compound (6.25 to 400 μg/mL) were mixed with the DENV-2/NG strain (at a multiplicity of infection (MOI = 1) and added to the cell monolayers for 2 h. At 2 h post-inoculation (hpi), the mixtures were removed, and the same serial dilutions of the extracts, fractions, or compounds were added again and incubated for 24 h. Finally, the supernatants were collected and stored at − 70 °C until performing the multiwell plate focus assay.
as §1
(§3) To determine the CC50 and EC50, a regression analysis was performed with Probit Software. The SI of each molecule was determined from the relationship between the CC50 and EC50, using the formula SI = CC50/EC50. To compare the number of infectious viral particles released between the cells treated with each fraction or compound (for both the pre- and post-treatment strategies) and the untreated cells, Student’s t-test was used. All statistical analyses were performed using the Prism® 7.01 for Windows™ package (GraphPad Software, San Diego, CA), considering differences statistically significant at p < 0.05 in all cases. Each experimental condition was tested in triplicate in two independent experiments (n = 6) to guaranty the statistical analysis and the figures show the average of those experiments.

Data set [5] in a line: MTT cytotoxicity (CC50) in VERO cells. The format is cell-based. Conditions: African green monkey (Cercopithecus aethiops). On the procedure: The CC50 was determined via the 3-(4,5-dimethyl-2-thiazolyl)-2,5-diphenyl-2H-tetrazolium bromide) (MTT, Sigma-Aldrich) method. For this, 2.5 × 10^4 VERO cells were seeded in 96-well plates for 24 h. […] After the incubation period, an MTT solution (0.5 mg/mL) was added to the cultures, which were then incubated for an additional 3 h at 37 °C. Finally, dimethyl sulfoxide was added, and the absorbance was read at 450 nm in a Bio-Rad Benchmark® microplate reader. Cultures without extract, fractions, or compounds were processed as positive controls for viability. […] Each experimental condition was tested in triplicate in two independent experiments (n = 6).
as §3, with “All statistical analyses were performed using the Prism® 7.01 for Windows™ package (GraphPad Software, San Diego, CA), considering differences statistically significant at p < 0.05 in all cases.” left out

Where [6] appears, read: read-out: Viral inhibition percentage, post-treatment strategy, VERO cells infected with DENV-2/NG MOI = 1, then compounds 50 μg/mL for 48 h, plate focus assay.
Where [7] appears, read: read-out: Viral inhibition percentage, pre-treatment strategy, compounds 50 μg/mL added to VERO cells before infection with DENV-2/NG MOI = 1, plate focus assay.
Where [8] appears, read: VERO cells, 48 h incubation, MTT, unit given, not in Table 1, read-out: Cytotoxic concentration 50% (CC50).

For `CC[C@H]1CC2CN3CCc4c([nH]c5ccc(OC)cc45)[C@](C(=O)OC)(C2)[C@H]13` (stereo in doubt) [voacangine], the “Inhibition of infection in vitro by plant-derived compounds” value in data set [1] is “greater than 50%”.

As for `Oc1cc(O)c2c(c1)OC(c1ccc(O)c(O)c1)C(O)C2` (stereo not drawn) [Catechin, catechin], in data set [2] (setting [6]), the inhibition at 50 µg/mL stood at 91.8%. Also, the “Viral inhibition percentage, post-treatment strategy” value in data set [2] (plate focus assay) was “greater than 90%”. In data set [3] (setting [7]), the inhibition at 50 µg/mL was 100%. Also, in data set [3] (compounds 50 μg/mL added to VERO cells before infection with DENV-2/NG MOI = 1, plate focus assay), the “Viral inhibition percentage, pre-treatment strategy” value is on record as “greater than 90%”. Besides, in data set [4], the EC50 came out at 33.7 µg/mL and the “Selectivity index (SI)” value came out at 24.8. In addition, the CC50 at 48 h in data set [5] (setting [8]) came to 833 µg/mL (≈ 2870 µM).

For the compound `O=C(O)c1cc(O)c(O)c(O)c1` [Gallic Acid, gallic acid], the inhibition at 50 µg/mL in data set [2] (setting [6]) was determined as 67.3%; in data set [3] (setting [7]) it was 52.6%. The EC50 in data set [4] came to 25.8 µg/mL. Besides, the “Selectivity index (SI)” value in data set [4] amounted to 21.1. Besides, in data set [5] (setting [8]), the CC50 at 48 h is 543 µg/mL (≈ 3190 µM).

`C[C@@H]1O[C@@H](O[C@H]2[C@H](Oc3cc(O)c4c(c3)O[C@H](c3ccc(O)cc3)CC4=O)O[C@H](CO)[C@@H](O)[C@@H]2O)[C@H](O)[C@H](O)[C@H]1O` [Naringin, naringin]: the inhibition at 50 µg/mL in data set [2] (setting [6]) was found to be 64.5%. Also, in data set [4], the EC50 turned out to be 47.9 µg/mL and the “Selectivity index (SI)” value is given as 13.5. Also, in data set [5] (setting [8]), the CC50 at 48 h was found to be 647 µg/mL (≈ 1110 µM).

Regarding `O=c1c(O)c(-c2ccc(O)c(O)c2)oc2cc(O)cc(O)c12` [Quercetin, quercetin], the inhibition at 50 µg/mL in data set [2] (read-out: Viral inhibition percentage, post-treatment strategy) amounted to 100%. Further, in data set [3] (read-out: Viral inhibition percentage, pre-treatment strategy), the inhibition at 50 µg/mL is 50%. For the same compound, in data set [4], the EC50 is 19.2 µg/mL and the “Selectivity index (SI)” value is given as 34.3. This compound came in with a CC50 at 48 h in data set [5] of 660 µg/mL (≈ 2180 µM).

As to `Cc1ccc(C(=O)Nc2ccc(S(=O)(=O)O)c3cc(S(=O)(=O)O)cc(S(=O)(=O)O)c23)cc1NC(=O)c1cccc(NC(=O)Nc2cccc(C(=O)Nc3cc(C(=O)Nc4ccc(S(=O)(=O)O)c5cc(S(=O)(=O)O)cc(S(=O)(=O)O)c45)ccc3C)c2)c1` [SURAMIN, suramin, reference compound], the “Viral inhibition percentage, post-treatment strategy” value in data set [2] (plate focus assay) is given as “better inhibition”.

For `C=C(C)[C@@H]1CC[C@]2(C)CC[C@]3(C)[C@H](CC[C@@H]4[C@@]5(C)CC[C@H](O)C(C)(C)[C@@H]5CC[C@]43C)[C@@H]12` [lupeol], the “Inhibition of infection in vitro by plant-derived compounds” value in data set [1] is “greater than 50%”.

Values taken from article PMC6836419, “In vitro and in silico anti-dengue activity of compounds obtained from Psidium guajava through bioprospecting” (BMC Complementary and Alternative Medicine, 2019).
